Laboratory results: ChEMBL document CHEMBL1154048, “Design, synthesis and pharmacological evaluation of new 1-[3-(4-arylpiperazin-1-yl)-2-hydroxy-propyl]-3,3-diphenylpyrrolidin-2-one derivatives with antiarrhythmic, antihypertensive, and alpha-adrenolytic activity” (Eur J Med Chem, 2009)

Tests used:
Format in all cases: functional, Artery
Rattus norvegicus [1] = test: Hypotensive activity in normotensive Wistar rat assessed as diastolic blood pressure at 5 mg/kg, iv after 60 mins (Rvb=127 +/- 8.1 mmHg)
Rattus norvegicus [2] = test: Hypotensive activity in normotensive Wistar rat assessed as systolic blood pressure at 5 mg/kg, iv after 10 mins (Rvb=142.5 +/- 3.6 mmHg)
Rattus norvegicus [3] = test: Hypotensive activity in normotensive Wistar rat assessed as systolic blood pressure at 5 mg/kg, iv after 60 mins (Rvb=139 +/- 0.6 mmHg)
Rattus norvegicus [4] = test: Hypotensive activity in normotensive Wistar rat assessed as diastolic blood pressure at 5 mg/kg, iv after 5 mins (Rvb=119 +/- 1.2 mmHg)

Compound `CCOc1ccccc1N1CCN(CC(O)CN2CCC(c3ccccc3)(c3ccccc3)C2=O)CC1.Cl.Cl` (centres undefined) has an Activity (Rattus norvegicus [1]) of 95.5 mmHg and an Activity (Rattus norvegicus [2]) of 118 mmHg.

`COc1ccccc1N1CCN(CC(O)CN2CCC(c3ccccc3)(c3ccccc3)C2=O)CC1.Cl.Cl` (centres undefined) was tested, and the Activity (Rattus norvegicus [3]) was 112 mmHg.

Work on `Cl.Cl.O=C1N(CC(O)CN2CCN(c3ccccc3C(F)(F)F)CC2)CCC1(c1ccccc1)c1ccccc1` (centres undefined) yielded an Activity (Rattus norvegicus [4]) of 103 mmHg.
